Assay results as given in US12522590B2, “Brefeldin a derivatives, preparation method and use thereof” (OCEAN UNIVERSITY OF CHINA, priority 2019, dated 2026).
Converted amounts (≈) assume the structure as drawn. Where two headings read alike, the source gives them in different places.

What was measured:
[1] = Pharmacokinetic evaluation (plasma BFA by LC/MS/MS); assay type: in vivo, SD rats; conditions: iv
Procedure: SD rats were weighed after an overnight fasting of 15 hours and randomly grouped according to weights. The appropriate amount of the compound was accurately weighed, and a final volume of 5% DMSO, 10% Solutol, and 85% Saline was added and vortexed or sonicated to make a thorough mixing to provide a 4 mg/mL solution for intravenous administration (iv.). Venous blood was taken at the time points of 0, 0.083 (iv. group only), 0.25, 0.5, 1.0, 2.0, 5.0, 7.0 and 24 h, via jugular vein or other suitable means, with approximately 0.20 mL of each sample collected, anticoagulated with sodium heparin (with 6.25 μL of 200 mM DDVP/tube added), and placed on ice after collection. The plasma was separated by centrifugation within 2 hours (centrifugal force 6800 g, 6 min, 2-8° C.). The collected plasma samples were stored in a −70° C. refrigerator before analysis, and the remaining plasma samples after analysis were kept stored at −20° C. or −70° C. until LC/MS/MS analysis was performed. The accuracy of QC samples was evaluated while analyzing the samples, and more than 66% of the QC samples were required to have an accuracy between 80-120%. When plasma drug concentration-time curves were plotted, BLQ were recorded as 0. For the calculation of pharmacokinetic parameters, the concentration before dosing was counted as 0; BLQ before Cmax (including “No peak”) was counted as 0; BLQ after Cmax (including “No peak”) was not included in the calculation. Pharmacokinetic parameters such as AUC(0-t), T1/2, Cmax, Tmax and MRT were calculated according to the blood concentration data of BFA at different time points using WinNonlin.

[2] = tested on: human leukemia cells K562; experiment: Cell proliferation assay (CCK-8); assay type: cell-based; conditions: K562, 72 h
Description: (§1) CCK-8 method: The CCK-8 method is a highly sensitive, non-radioactive colorimetric assay for the determination of the number of viable cells in cell proliferation or cytotoxicity assays. The orange formazan dye produced by the bioreduction of CCK-8 by intracellular dehydrogenase is soluble in the cell culture medium, and the amount of formazan dye produced is proportional to the number of living cells. The kit used in this method is the tetrazolium salt-WST-8 (2-(2-methoxy-4-nitrophenyl)-3-(4-nitrophenyl)-5-(2,4-disulfophenyl)-2H-tetrazolium monosodium salt) developed by Dojindo Chemical Research Institute (Dojindo), which is capable of being reduced to a water-soluble formazan dye in the presence of the electronic carrier 1-Methoxy PMS.
(§2) Human cervical cancer cells Hela, pancreatic cancer cells PANC-1, esophageal cancer cells Eca-109, human leukemia cells K562, human lung cancer cells A549, human liver cancer cells HepG2, human gastric cancer cells MKN-45, human breast cancer cells MCF7 were cultured in DMEM medium containing 10% FBS (fetal bovine serum), 100 U/mL penicillin and 100 μg/ml streptomycin. Hepatocellular carcinoma cells Bel-7402 were cultured in RPMI-1640 medium containing 10% FBS (fetal bovine serum), 100 U/ml penicillin and 100 μg/ml streptomycin. All cells were placed in a cell culture incubator at 37° C. with 5% CO2. Cells fluid was changed every 3-5 days, and after 80% cell fusion, trypsin digestion and passaging were performed to keep the cells in good logarithmic growth phase.
(§3) All the samples to be tested were dissolved in DMSO.
(§4) Cells in logarithmic growth phase were inoculated in 96-well plates with 5000 cells/well respectively, and after 24 h of incubation, samples were added (final concentrations as shown in the table), and biplicate wells were set up for each sample. The amount of solvent of DMSO was not higher than 2‰. After 72 h, 10 μL of CCK-8 solution was added to each well and incubated for 1.5˜3 h at 37° C. The OD value at 450 nm was measured on an plate reader. Inhibition rate (%)=(1−[(OD450 dosed well−OD450 blank well)/(OD450 control well−OD450 blank well)])×100%
(§5) The fitted IC50 values were calculated using the log (inhibitor) vs. response—Variable slop analysis method in GraphPad Prism software.

[3] = tested on: human lung cancer cells A549; experiment: Cell proliferation assay (CCK-8); assay type: cell-based; conditions: A549, 72 h
Description: as §1, §2, §3, §4, §5

[4] = tested on: human gastric cancer cells MKN-45; experiment: Cell proliferation assay (CCK-8); assay type: cell-based; conditions: MKN-45, 72 h
Description: as §1, §2, §3, §4, §5

[5] = tested on: Human cervical cancer cells Hela; experiment: Cell proliferation assay (CCK-8); assay type: cell-based; conditions: 72 h
Description: as §1, §2, §3, §4, §5

[6] = tested on: human breast cancer cells MCF7; experiment: Cell proliferation assay (CCK-8); assay type: cell-based; conditions: MCF7, 72 h
Description: as §1, §2, §3, §4, §5

[7] = tested on: human liver cancer cells HepG2; experiment: Cell proliferation assay (CCK-8); assay type: cell-based; conditions: HepG2, 72 h
Description: as §1, §2, §3, §4, §5

[8] = Solubility test (shake 37° C., 24 h, HPLC); assay type: physicochemical; conditions: x ± s; for solubility at 24 h: thermodynamic from solid
Procedure: The term “solubility” refers to the mass of solute dissolved when a solid substance reaches saturation state in 100 g solvent at a certain temperature. Solubility test refer to the following references: ZHU Shang-bin, et al. Preparation, characterization, and physicochemical properties of arbutin phospholipid complex[J]. Chinese Traditional and Herbal Drugs. 2020, 1-10.
Methods: Excess BFA and the compounds disclosed herein were added to 10 mL of three solvents, methanol, acetone and 5% DMSO+95% H2O, respectively, and shaken on a shaker at 37° C. at 100 r/min for 24 h. After 24 h, the samples were centrifuged at 15 000 r/min for 15 min to remove the undissolved compounds. The supernatant was filtered using a 0.45 μm membrane filter. The supernatant was appropriately diluted with methanol and contents of the compounds were determined by HPLC method to calculate the solubility.

[9] = tested on: pancreatic cancer cells PANC-1; experiment: Cell proliferation assay (CCK-8); assay type: cell-based, human; conditions: PANC-1, 72 h
Description: as §1, §2, §3, §4, §5

[10] = tested on: esophageal cancer cells Eca-109; experiment: Cell proliferation assay (CCK-8); assay type: cell-based, human; conditions: Eca-109, 72 h
Description: as §1, §2, §3, §4, §5

[11] = tested on: Kunming breed mice; experiment: Acute toxicity test, single intragastric administration; assay type: in vivo
Description: Objective: Observation of toxic effects of compounds after a single intragastric administration (ig.) to mice
1) Agents: Compounds disclosed herein were formulated to a suitable concentration.
2) Animals: Kunming breed mice, weight 18-22 g, male.

[12] = Sprague-Dawley, rat, in vivo, 30 mg/kg
[13] = aqueous with cosolvent or surfactant or cyclodextrin, 5% DMSO + 95% H2O, n = 3, read-out: Solubility, 5% DMSO + 95% H2O
[14] = organic solvent or mixture, acetone, n = 3, read-out: Solubility, Acetone
[15] = organic solvent or mixture, methanol, n = 3, read-out: Solubility, Methanol
[16] = mice, single ig., high and low doses (BFA effective amount conversion)
[17] = mice, single ig., high and low doses (BFA effective amount conversion), within 72 h
[18] = SD rats, 20 mg/kg, blood concentration of BFA

SMILES | IC50 ([2]; Homo sapiens) [nM] | IC50 ([3]; Homo sapiens) [nM] | IC50 ([4]; Homo sapiens) [nM] | IC50 ([5]; Homo sapiens) [nM] | IC50 ([6]; Homo sapiens) [nM] | IC50 ([7]; Homo sapiens) [nM] | solubility at 24 h [8, 13] [mg/mL] | solubility at 24 h [8, 14] [mg/mL] | solubility at 24 h [8, 15] [mg/mL] | IC50 ([9]; Homo sapiens) [nM] | IC50 ([10]; Homo sapiens) [nM] | Mental condition after administration [11, 16] | Death within 72 h [11, 17] | other results
C[C@H]1CCC/C=C/[C@@H]2C[C@H](OC(=O)OCc3cccnc3)C[C@H]2[C@H](O)/C=C/C(=O)O1 [Compound 1, BFA-7-(pyridine-3-ylmethyl)carbonate] | 100 to 1000 | < 100 | < 100 | 100 to 1000 | 100 to 1000 | < 100 | 2.73 ± 0.21 | 68.7 ± 2.53 (≈ 165 mM) | 74.3 ± 2.52 (≈ 179 mM) | 100 to 1000 | < 100 | good mental conditions |  | AUCINF [1, 12]: 5763.29 ng·h/mL; AUClast [1, 12]: 5766.31 ng·h/mL; Cmax [1, 12]: 7192.20 ng/mL; MRTINF [1, 12]: 11.4 min; T1/2 [1, 12]: 15 min; Tmax [1, 12]: 15 min; Death within 72 h ([11]; mouse, in vivo): no death
COc1ccc(COC(=O)O[C@@H]2C[C@H]3[C@H](O)/C=C/C(=O)O[C@@H](C)CCC/C=C/[C@@H]3C2)cn1 [Compound 6] | 100 to 1000 | < 100 | < 100 | 100 to 1000 | 100 to 1000 | 100 to 1000 | 2.95 ± 1.61 | 70.6 ± 1.44 (≈ 158 mM) | 70.4 ± 3.35 (≈ 158 mM) | 100 to 1000 | 100 to 1000 | good mental conditions | no death | 
C[C@H]1CCC/C=C/[C@@H]2C[C@H](OC(=O)OCc3cnc4ccccc4c3)C[C@H]2[C@H](O)/C=C/C(=O)O1 [Compound 11, BFA-7-(quinoline-3-ylmethyl)carbonate] | 100 to 1000 | 100 to 1000 | 100 to 1000 | 100 to 1000 | 100 to 1000 | 100 to 1000 | 2.65 ± 1.8 | 67.6 ± 2.74 (≈ 145 mM) | 69.3 ± 4.35 (≈ 149 mM) | < 100 | < 100 | good mental conditions | no death | 
C[C@H]1CCC/C=C/[C@@H]2C[C@H](O)C[C@H]2[C@H](O)/C=C/C(=O)O1 [BFA, Brefeldin A] |  |  |  |  |  |  |  |  |  |  |  |  |  | AUCINF [1, 18]: 4448.31 ng·h/mL; AUClast [1, 18]: 4450.24 ng·h/mL; Cmax [1, 18]: 5744.26 ng/mL; MRTINF [1, 18]: 11.4 min; T1/2 [1, 18]: 25.2 min; Tmax [1, 18]: 15 min; IC50 [2]: 100 to 1000 nM; IC50 [3]: 100 to 1000 nM; IC50 [4]: 100 to 1000 nM; IC50 [5]: 100 to 1000 nM; IC50 [6]: < 100 nM; IC50 [7]: 100 to 1000 nM; Solubility, 5% DMSO + 95% H2O ([8]; 5% DMSO + 95% H2O, n = 3): 0.085 ± 0.03 mg/mL; Solubility, Acetone ([8]; acetone, n = 3): 3.13 ± 1.24 mg/mL (≈ 11.2 mM); Solubility, Methanol ([8]; methanol, n = 3): 3.13 ± 1.24 mg/mL (≈ 11.2 mM); IC50 [9]: < 100 nM; IC50 [10]: 100 to 1000 nM; Mortality within 24 h ([11]; mice, single ig., high dose 1000 mg/kg, within 24 h): all animals died; Animals died within 72 h ([11]; mice, single ig., low dose 750 mg/kg, within 72 h): ⅔
